Where two headings read alike, the source gives them in different places.
Tests used:
[1] = target: hCB2 (Homo sapiens, UniProt P34972); assay: In vitro binding assay using hCB2-CHO membranes, [3H]-CP-55,940 displacement (Protocol IV); set-up: expressed in transfected cells; host or cells: CHO (hCB2-CHO, generated in-house); conditions: 1 h, read-out: % Displacement Protocol IV
Description: IV. Protocol for In Vitro Assay Using hCB2-CHO Membranes:
In this assay, [^3H]-CP-55,940 was used as the radioligand to bind human CB2 receptor expressed on the membranes from CHO cells (hCB2-CHO cell line was generated in-house) which can be displaced by unlabeled ligands having affinity to the CB2 receptor.
The assay was performed according to the modified method of Ross et al., 1999 (Br. J. Pharmacol. 128, 735-743). The reaction was set up in a total volume of 200 μl in PEI (0.2%) precoated Millipore GFB filter plates. 1 mM stocks of test compounds were prepared in DMSO and tested at a final concentration of 300 nM. The non-specific binding was determined by 0.5 μM CP-55, 940. The total reaction mixture contained Tris-BSA buffer (50 mM Tris, 5 mM MgCl2, 1 mM EDTA, pH 7.4 with 0.1% BSA), unlabelled CP-55, 940 (0.5 μM) or test samples, [^3H]-CP-55, 940 (0.75 nM) and 25-50 μg of human CB2 receptor preparation. The assay mixture (with or without the test compound) was incubated at 30° C. for 1 hour. The reaction was stopped by rapid filtration under vacuum and the radioactivity on the filters was measured by liquid scintillation counting.
The percent (%) displacement by a test ligand was calculated by comparing the specific bound values.

[2] = hCB2-CHO membranes, [3H]-CP-55,940 displacement

hCB2, sequence (P34972 whole entry): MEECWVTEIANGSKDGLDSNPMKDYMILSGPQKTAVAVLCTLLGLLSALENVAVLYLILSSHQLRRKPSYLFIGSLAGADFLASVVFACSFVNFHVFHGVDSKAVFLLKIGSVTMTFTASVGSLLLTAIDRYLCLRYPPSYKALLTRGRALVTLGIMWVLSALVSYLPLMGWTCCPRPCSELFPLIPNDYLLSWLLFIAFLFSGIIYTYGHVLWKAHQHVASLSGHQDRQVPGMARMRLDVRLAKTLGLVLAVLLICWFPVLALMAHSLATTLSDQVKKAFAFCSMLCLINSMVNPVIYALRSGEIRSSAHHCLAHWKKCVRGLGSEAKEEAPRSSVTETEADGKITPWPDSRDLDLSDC

Structure (SMILES)	melting point [°C]	inhibition at 0.3 µM [1] [%]	inhibition at 0.3 µM [1, 2] [%]
O=C(NCC1CCCO1)c1nn(-c2ccc(F)cc2F)c2c1C1CCC2C1 (centres unmarked) [Example 322, N(3)-(Tetrahydro-2-furanylmethyl)-1-(2,4-difluorophenyl)-4,5,6,7-tetrahydro-1H-4,7-methano-indazole-3-carboxamide]	91 to 93	43.4	–
CC12CCC(c3c(C(=O)NC45CC6CC(CC(C6)C4)C5)nn(-c4ccc(F)cc4F)c31)C2(C)C (centres unmarked) [Example 405, N(3)-(Adamantan-1-yl)-1-(2,4-difluorophenyl)-7,8,8-trimethyl-4,5,6,7-tetrahydro-1H-4,7-methano-indazole-3-carboxamide]	162 to 165	87.9	–
CC(C)(NC(=O)c1nn(-c2ccc(F)cc2)c2c1C1CCC2C1)c1ccccc1 (centres unmarked) [Example 282, N5-(1-Methyl-1-phenylethyl)-3-(4-fluorophenyl)-3,4-diazatricyclo[5.2.1.0^2,6]deca-2(6),4-diene-5-carboxamide]	119 to 122	92.3	–
O=C(NC1C2CC3CC(C2)CC1C3)c1nn(-c2ccc(F)cc2F)c2c1C1CCC2C1 (centres unmarked) [Example 309, N5-(2-Adamantyl)-3-(2,4-difluorophenyl)-3,4-diazatricyclo[5.2.1.0^2,6]deca-2(6),4-diene-5-carboxamide]	159 to 161	98.5	–
CC(C)(NC(=O)c1nn(-c2ccc(F)cc2F)c2c1C1CCC2C1)c1ccccc1Cl (centres unmarked) [Example 295, N5-[1-(2-Chlorophenyl)-1-methylethyl]-3-(2,4-difluorophenyl)-3,4-diazatricyclo[5.2.1.0^2,6]deca-2(6),4-diene-5-carboxamide]	176 to 179	100	–
O=C(NC1C2CC3CC(C2)CC1C3)c1nn(-c2ccc(F)cc2)c2c1C1CCC2C1 (centres unmarked) [Example 281, N5-(Adamantan-2-yl)-3-(4-fluorophenyl)-3,4-diazatricyclo[5.2.1.0^2,6]deca-2(6),4-diene-5-carboxamide]	196 to 198	97.1	–
O=C(NC12CC3CC(CC(C3)C1)C2)c1nn(-c2ccc(F)cc2)c2c1C1CCC2C1 (centres unmarked) [Example 283, N5-(Adamantan-1-yl)-3-(4-fluorophenyl)-3,4-diazatricyclo[5.2.1.0^2,6]deca-2(6),4-diene-5-carboxamide]	189 to 191	94.8	–
O=C(NCc1ccncc1)c1nn(-c2ccc(Cl)cc2)c2c1C1CC3CC(C1)CC2C3 [Example 105, N(7)-(4-Pyridylmethyl)-5-(4-chlorophenyl)-5,6-diazatetracyclo[7.3.1.1^3,11.0^4,8]tetradeca-4(8),6-diene-7-carboxamide]	167 to 168	–	22.4
CC(C)(NC(=O)c1nn(-c2ccc(F)cc2F)c2c1C1CC3CC(C1)CC2C3)c1ccccc1Cl [Example 153, N7-[1-(2-Chlorophenyl)-1-methylethyl]-5-(2,4-difluorophenyl)-5,6-diazatetracyclo[7.3.1.1^3,11.0^4,8]tetradeca-4(8),6-diene-7-carboxamide]	145 to 147	–	99.5
COc1ccc(-n2nc(C(=O)NN3CCCCC3)c3c2C2CC4CC(CC3C4)C2)cc1 [Example 163, N(7)-Piperidino-5-(4-methoxyphenyl)-5,6-diazatetracyclo[7.3.1.1^3,11.0^4,8]tetradeca-4(8),6-diene-7-carboxamide]	156	–	14.5
O=C(NCc1ccc(F)cc1F)c1nn(-c2ccc(Cl)cc2)c2c1C1CC3CC(C1)CC2C3 [Example 114, N(7)-(2,4-Difluorobenzyl)-5-(4-chlorophenyl)-5,6-diazatetracyclo[7.3.1.1^3,11.0^4,8]tetradeca-4(8),6-diene-7-carboxamide]	185	31.7	–
CC[C@H](NC(=O)c1nn(-c2ccc(F)cc2F)c2c1C1CC3CC(C1)CC2C3)c1ccccc1 [Example 152, N(7)-[(S)-1-Phenylpropyl]-5-(2,4-difluorophenyl)-5,6-diazatetracyclo[7.3.1.1^3,11.0^4,8]tetradeca-4(8),6-diene-7-carboxamide]	127 to 129	60.3	–
COC(=O)[C@H](NC(=O)c1nn(-c2ccc(F)cc2F)c2c1C1CCC2(C)C1(C)C)c1ccccc1 (stereo partly drawn) [Example 409, Methyl (2R)-2-[1-(2,4-difluorophenyl)-7,8,8-trimethyl-4,5,6,7-tetrahydro-1H-4,7-methano-indazole-3-carboxamido]-2-phenylethanoate]	107 to 109	–	65.3
CC1(NC(=O)c2nn(-c3ccc(F)cc3F)c3c2C2CCC3C2)C2CC3CC(C2)CC1C3 (centres unmarked) [Example 310, N5-(2-Methyl-2-adamantyl)-3-(2,4-difluorophenyl)-3,4-diazatricyclo[5.2.1.0^2,6]deca-2(6),4-diene-5-carboxamide]	60	94.2	–
CC12CCC(c3c(C(=O)NNc4ncccc4Cl)nn(-c4ccc(Cl)cc4Cl)c31)C2(C)C (centres unmarked) [Example 404, N(3)-[(3-chloropyridin-2-yl)amino]-1-(2,4-Dichlorophenyl)-7,8,8-trimethyl-4,5,6,7-tetrahydro-1H-4,7-methano-indazole-3-carboxamide]	142 to 145	–	23.8
CC(C)(NC(=O)c1nn(-c2ccc(F)cc2)c2c1C1CC3CC(C1)CC2C3)c1ccccc1 [Example 157, N(7)-(1-Methyl-1-phenylethyl)-5-(4-fluorophenyl)-5,6-diazatetracyclo[7.3.1.1^3,11.0^4,8]tetradeca-4(8),6-diene-7-carboxamide]	180 to 182	88.5	–
C[C@@H](NC(=O)c1nn(-c2ccc(F)cc2F)c2c1C1CC3CC(C1)CC2C3)c1ccccc1 [Example 147, N(7)-(R-1-phenylethyl)-5-(2,4-difluorophenyl)-5,6-diazatetracyclo[7.3.1.1^3,11.0^4,8]tetradeca-4(8),6-diene-7-carboxamide]	123 to 128	37.1	–
CC12CCC(C1)C(C)(C)C2NC(=O)c1nn(-c2ccc(F)cc2F)c2c1C1CCC2(C)C1(C)C (centres unmarked) [Example 406, N(3)-(1,3,3-Trimethylbicyclo[2.2.1]hept-2-yl)-1-(2,4-difluorophenyl)-7,8,8-trimethyl-4,5,6,7-tetrahydro-1H-4,7-methano-indazole-3-carboxamide]	171 to 173	94.3	–
CC12CCC(c3c(C(=O)NNc4ccccc4F)nn(-c4ccc(Cl)cc4Cl)c31)C2(C)C (centres unmarked) [Example 402, N(3)-[(2-Fluorophenyl)amino]-1-(2,4-Dichlorophenyl)-7,8,8-trimethyl-4,5,6,7-tetrahydro-1H-4,7-methano-indazole-3-carboxamide]	72 to 80	–	2.66
CC12CCC(C1)C(C)(C)C2NC(=O)c1nn(-c2ccc(F)cc2F)c2c1C1CCC2C1 (centres unmarked) [Example 296, N(3)-(1,3,3-Trimethylbicyclo[2.2.1]hept-2-yl)-1-(2,4-difluorophenyl)-4,5,6,7-tetrahydro-1H-4,7-methano-indazole-3-carboxamide]	114 to 117	95.9	–
CN(NC(=O)c1nn(-c2ccc(Cl)cc2Cl)c2c1C1CCC2C1)c1ccc(Cl)cc1Cl (centres unmarked) [Example 261, N(3)-[(2,4dichlorophenyl)-N-methylamino]-1-(2,4-dichlorophenyl)-4,5,6,7-tetrahydro-1H-4,7-methano-indazole-3-carboxamide]	135 to 138	–	–
O=C(NC1(c2ccccc2)CC1)c1nn(-c2ccc(F)cc2F)c2c1C1CCC2C1 (centres unmarked) [Example 308, N5-(1-phenylcyclopropyl)-3-(2,4-difluorophenyl)-3,4-diazatricyclo[5.2.1.0^2,6]deca-2(6),4-diene-5-carboxamide]	90	86.6	–
CC[C@H](NC(=O)c1nn(-c2ccc(F)cc2F)c2c1C1CCC2C1)c1ccccc1 (stereo partly drawn) [Example 300, N5-[(1S)-1-Phenylpropyl]-3-(2,4-difluorophenyl)-3,4-diazatricyclo[5.2.1.0^2,6]deca-2(6),4-diene-5-carboxamide]	100 to 103	90.1	–
O=C(NCC1CCCCC1)c1nn(-c2ccc(F)cc2F)c2c1C1CCC2C1 (centres unmarked) [Example 291, N(3)-(Cyclohexylmethyl)-1-(2,4-difluorophenyl)-4,5,6,7-tetrahydro-1H-4,7-methano-indazole-3-carboxamide]	94 to 97	–	–
CN(NC(=O)c1nn(-c2ccc(Cl)cc2Cl)c2c1C1CCC2C1)c1ccccc1Cl (centres unmarked) [Example 258, N(3)-[N-(2-Chlorophenyl)-N-methylamino]-1-(2,4-dichlorophenyl)-4,5,6,7-tetrahydro-1H-4,7-methano-indazole-3-carboxamide]	121 to 124	–	–
